Common to all, as to type: in vivo, Sprague-Dawley (SD) rats
Experiment [1] deals with rats with a chronic constriction injury (CCI) of the sciatic nerve. Description: Relief of tactile allodynia (von Frey paw withdrawal thresholds) in the ipsilateral (injured) hindpaw of CCI-rats. The conditions noted are these: for doses required to produce significant relief of tactile allodynia in CCI-rats compared with STZ-diabetic rats: CCI-rats vs STZ-diabetic rats. The method, then: (§1) Adult male Sprague-Dawley (SD) rats were anaesthetized with Zoletil 100® (0.09 ml/200 g) and Xylazil-20™ (0.1 mL/200 g) administered by intraperitoneal (i.p.) injection, and a chronic constriction injury (CCI) of the sciatic nerve was produced according to the method of Bennett and Xie (1988). Briefly, the left common sciatic nerve was exposed at mid-thigh level by blunt dissection through the biceps femoris. Proximal to the trifurcation, 10 mm of nerve was freed of adhering tissue and four loose ligatures (3.0 silk) were tied around the sciatic nerve 1 mm apart). The incision was closed in layers. After surgery, rats received benzylpenicillin (60 mg s.c.) to prevent infection and were kept warm during surgical recovery. Rats were housed singly for 10-14 days prior to AT2 receptor antagonist or vehicle (normal saline) administration. After CCI-surgery, rats were inspected daily with regard to posture of the affected hindpaw, exploring behavior, body weight and water intake, and any signs of autotomy. Whilst under light anaesthesia with CO2/O2 (50:50%), CCI-rats or STZ-diabetic rats received a single bolus injection (200 μL) of one AT2 receptor antagonist (PD123,319 or L-159,686) by the intravenous (i.v.) or the intraperitoneal (i.p.) route, using a 250 μL Hamilton syringe. The test compounds were administered to CCI-rats at 14 days after CCI-surgery and to STZ-diabetic rats at approximately 8-wks after the induction of diabetes with STZ. Relief of tactile (mechanical) allodynia, the defining symptom of neuropathic pain, by each of the test agents, PD123,319 or L-159,686, was quantified using calibrated von Frey filaments as described below. Tactile allodynia was quantified using calibrated von Frey filaments. Rats were placed in wire mesh testing cages (20 cm×20 cm×20 cm) and allowed to acclimatise for approximately […] Von Frey filaments were used to determine the lowest mechanical threshold required for a brisk paw withdrawal reflex. Briefly, the filament that produced the lowest force was applied to the plantar surface of the hindpaw until the filament buckled slightly. Absence of a response after 5 s prompted use of the next filament in an ascending sequence. Filaments used produced a buckling weight of 2, 4, 6, 8, 10, 12, 14, 16, 18 and 20 g and these were calibrated prior to each testing session. […] For CCI-rats, baseline von Frey paw withdrawal thresholds (PWTs) were quantified prior to CCI-surgery, and at 14 days post-surgery immediately prior to drug administration. For STZ-diabetic rats, baseline von Frey PWT values were determined prior to the induction of diabetes with STZ and at 1-2 weekly intervals thereafter for 8 weeks to document the temporal development of tactile allodynia. For all rats, baseline PWTs were the mean of three readings taken, 5 min apart before drug administration and were determined separately for each hindpaw. After administration of each test compound, von Frey PWTs were determined at the following post-dosing times: 0.08, 0.25, 0.5, 0.75, 1, 1.25, 1.5, 2 and 3 h. Paw withdrawal thresholds (PWTs; g) were plotted against time to construct response versus time curves for each of the two test compounds (PD123,319 and L-159,686) for each dose and dosing route. Whilst adult male SD rats were anaesthetized with 3% isoflurane: 97% oxygen, four loose ligatures were tied around one sciatic nerve to produce a unilateral chronic constriction injury (CCI) according to the method of Bennett and Xie (1988, Pain 33: 87-107). Briefly, the left common sciatic nerve was exposed at mid-thigh level by blunt dissection through the biceps femoris. Proximal to the trifurcation, 10 mm of nerve was freed of adhering tissue and four loose ligatures (3.0 silk) were tied around the sciatic nerve 1 mm apart). The incision was closed in layers. After surgery, rats received benzylpenicillin (60 mg s.c.) to prevent infection and were kept warm during surgical recovery. […]

In the next experiment the test system is STZ-diabetic rats. Kind of experiment: Relief of tactile allodynia (von Frey paw withdrawal thresholds) in the hindpaws of STZ-diabetic rats (model of PDN). The conditions noted are these: for relief of tactile allodynia (summary in discussion): STZ-diabetic rat model of PDN; for relief of tactile allodynia (summary in discussion) / onset of anti-allodynia (summary in discussion): single i.p. bolus doses; for reversal of tactile allodynia in the hindpaws: i.p., higher doses tested. The method, then: Adult male SD rats were anaesthetized in a manner similar to that described above, to facilitate insertion of a polyethylene cannula (previously filled with 0.1 ml of sterile saline) into the right common jugular vein. Jugular vein cannulae were tested for correct placement by the withdrawal of a small amount of blood. Diabetes was induced following an acute i.v. injection of streptozotocin (STZ) (80 mg/kg) in 0.1 M citrate buffer (pH 4.5) into the jugular vein. Diabetes was confirmed by monitoring the water intake and blood glucose concentration in individual rats. Blood glucose was monitored using either (Glucostix™) or a Precision QID™ test kit.
Consistent with previous studies in the literature (Calcutt et al., 1996, Pain. 68(2-3):293-9), rats that drank more than 100 mL of water per day by 10 days post-STZ injection, were classified as diabetic, and only rats with blood glucose concentrations exceeding 15 mM were included in the subsequent experiments. By comparison, the water intake of control non-diabetic rats was approximately 20 mL per day and blood glucose concentrations were in the range 5-6 mM, consistent with the literature (Calcutt et al., 1996, supra).
Whilst under light anaesthesia with CO2/O2 (50:50%), CCI-rats or STZ-diabetic rats received a single bolus injection (200 μL) of one AT2 receptor antagonist (PD123,319 or L-159,686) by the intravenous (i.v.) or the intraperitoneal (i.p.) route, using a 250 μL Hamilton syringe. The test compounds were administered to CCI-rats at 14 days after CCI-surgery and to STZ-diabetic rats at approximately 8-wks after the induction of diabetes with STZ. Relief of tactile (mechanical) allodynia, the defining symptom of neuropathic pain, by each of the test agents, PD123,319 or L-159,686, was quantified using calibrated von Frey filaments as described below.
Tactile allodynia was quantified using calibrated von Frey filaments. Rats were placed in wire mesh testing cages (20 cm×20 cm×20 cm) and allowed to acclimatise for approximately […] Von Frey filaments were used to determine the lowest mechanical threshold required for a brisk paw withdrawal reflex. Briefly, the filament that produced the lowest force was applied to the plantar surface of the hindpaw until the filament buckled slightly. Absence of a response after 5 s prompted use of the next filament in an ascending sequence. Filaments used produced a buckling weight of 2, 4, 6, 8, 10, 12, 14, 16, 18 and 20 g and these were calibrated prior to each testing session.
For CCI-rats, baseline von Frey paw withdrawal thresholds (PWTs) were quantified prior to CCI-surgery, and at 14 days post-surgery immediately prior to drug administration. For STZ-diabetic rats, baseline von Frey PWT values were determined prior to the induction of diabetes with STZ and at 1-2 weekly intervals thereafter for 8 weeks to document the temporal development of tactile allodynia. For all rats, baseline PWTs were the mean of three readings taken, 5 min apart before drug administration and were determined separately for each hindpaw. After administration of each test compound, von Frey PWTs were determined at the following post-dosing times: 0.08, 0.25, 0.5, 0.75, 1, 1.25, 1.5, 2 and 3 h.
Paw withdrawal thresholds (PWTs; g) were plotted against time to construct response versus time curves for each of the two test compounds (PD123,319 and L-159,686) for each dose and dosing route.
Whilst adult male SD rats were anaesthetized with 3% isoflurane: 97% oxygen, a short polyethylene cannula (0.4 mm ID, 0.8 mm OD) was inserted into the jugular vein to facilitate the intravenous (i.v) administration of a single dose of STZ (75 mg/kg). After removal of the i.v. cannula, the jugular vein was tied off, the wound was closed and topical bupivacaine was applied. Rats received benzylpenicillin (60 mg s.c.) to prevent infection and were kept warm during surgical recovery. […]

The test system of experiment [2] is rats with a chronic constriction injury (CCI) of the sciatic nerve. Description: Antinociception (von Frey paw withdrawal thresholds) in the contralateral hindpaw of CCI-rats. The method, then: as §1, with “87-107).” for “87-107). Briefly, the left common sciatic nerve was exposed at mid-thigh level by blunt dissection through the biceps femoris. Proximal to the trifurcation, 10 mm of nerve was freed of adhering tissue and four loose ligatures (3.0 silk) were tied around the sciatic nerve 1 mm apart). The incision was closed in layers. After surgery, rats received benzylpenicillin (60 mg s.c.) to prevent infection and were kept warm during surgical recovery.”

The test system is the same in experiment [3]. Description: Relief of tactile allodynia (von Frey paw withdrawal thresholds) in the ipsilateral (injured) hindpaw of CCI-rats. The following applies: oral bolus 1 mg/kg vs same dose i.p.
Setting [4] is: CCI-rats, sodium salt, i.p. bolus 0.003 to 10 mg/kg.
The mark [5] stands for this setting: STZ-diabetic rats, sodium salt, i.p. bolus 0.0003 to 3 mg/kg.
[6] abbreviates: CCI-rats, i.p. bolus 0.03 to 3 mg/kg.
The mark [7] stands for this setting: STZ-diabetic rats, i.p. bolus 0.001 to 3.0 μg/kg.

“And” between values parts separate entries of the source, which are not always exact repeats. Identical values can stand only once. “Also recorded” adds a separate entry of the source.

In the case of `CCc1nc2ccc(N(Cc3ccccc3)C(=O)c3cccs3)cc2c(=O)n1Cc1ccc(-c2ccccc2-c2nn[nH]n2)cc1.[Na]` [L-161,638 (sodium salt), thiophene-2-carboxylic Acid benzyl-{2-ethyl-4-oxo-3-[2′-(2H-tetrazol-5yl)-biphenyl-4-ylmethyl]-3,4-dihydro-quinazolin-6-yl}-amide Sodium Salt], in experiment [1], the “doses required to produce significant relief of tactile allodynia in CCI-rats compared with STZ-diabetic rats” value is on record as “considerably larger doses”. Further, in experiment [1] (setting [4]), the “anti-allodynia (relief of tactile allodynia) in the ipsilateral hindpaw” value is on record as “dose-dependent relief of tactile allodynia”, the durations of action lay in the range of 1.5 to 3 h, the “onset of anti-allodynia in the ipsilateral hindpaw” value was “rapid onset” and the “time of peak responses post-dosing” value was 0.5 to 0.75 h. Also, the “anti-allodynia (relief of tactile allodynia) in the ipsilateral hindpaw” value in experiment [1] (CCI-rats, sodium salt, i.p. bolus 0.003 to 10 mg/kg, listed as L-161,638, Sodium Salt) was “dose-dependent anti-allodynia”. For the same molecule, in the experiment on STZ-diabetic rats, the “relief of tactile allodynia (summary in discussion)” value is reported as “potent relief of tactile allodynia”. In the experiment with STZ-diabetic rats (STZ-diabetic rats), the “reversal of tactile allodynia in the hindpaws” value is “fully reversed” and the “onset of anti-allodynia (summary in discussion)” value is given as “relatively rapid onset”. Further, the duration of action with STZ-diabetic rats (STZ-diabetic rats, sodium salt, i.p. 3 mg/kg dose) is on record as above 3 h. Moreover, in the experiment on STZ-diabetic rats (setting [5]), the “onset of relief of tactile allodynia” value is listed as “rapid onset”, the “relief of tactile allodynia” value is on record as “dose-dependent relief of tactile allodynia” and the “time of peak effects post-dosing” value is 0.25 to 0.75 h. Moreover, the “relief of tactile allodynia” value in the experiment on STZ-diabetic rats (STZ-diabetic rats, sodium salt, i.p. bolus 0.0003 to 3 mg/kg, listed as L-161,638, Sodium Salt) was “relief of tactile allodynia”. Also, the duration of action in the experiment on STZ-diabetic rats (STZ-diabetic rats, sodium salt, i.p. doses in the range 0.0003-0.03 μg/kg) is 3 h. The “antinociception in the contralateral hindpaw” value (from here on “antinociception”) in experiment [2] (sodium salt, i.p. doses up to 10 mg/kg) is reported as “insignificant antinociception”.
`COc1ccc(Cn2cnc3c2C[C@@H](C(=O)O)N(C(=O)C(c2ccccc2)c2ccccc2)C3)cc1C` [PD-121,981]: the “doses required to produce significant relief of tactile allodynia in CCI-rats compared with STZ-diabetic rats” value in experiment [1] is “considerably larger doses”. For the same molecule, the duration of action in experiment [1] (CCI-rats, 1 mg/kg, irrespective of dosing route (oral or i.p.)) is 3 h. Besides, in experiment [1] (setting [6]), the “anti-allodynia (relief of tactile allodynia) in the ipsilateral hindpaw” value was “dose-dependent anti-allodynia; also recorded: dose-dependent relief of tactile allodynia”; the durations of action fell in the range of 2 to 3 h; the “onset of anti-allodynia in the ipsilateral hindpaw” value is reported as “rapid onset”; the “time of peak anti-allodynia in the ipsilateral hindpaw post-dosing” value is 0.5 to 0.75 h and 0.5 to 1.0 h. Further, in the experiment with STZ-diabetic rats, the “relief of tactile allodynia (summary in discussion)” value is given as “potent relief of tactile allodynia”. In the experiment on STZ-diabetic rats (STZ-diabetic rats, 0.1 μg/kg, irrespective of dosing route (oral or i.p.)), the duration of action entry is “exceeded 3 h”. Moreover, in the experiment with STZ-diabetic rats (setting [7]), the onset of action entry was “rapid onset of action”, the “relief of tactile allodynia” value is “dose-dependent relief of tactile allodynia” and the “time of peak anti-allodynia post-dosing” value fell in the range of 0.5 to 1.0 h. Besides, the duration of action in the experiment with STZ-diabetic rats (STZ-diabetic rats, i.p. doses in the range 0.03-3.0 μg/kg) is on record as above 3 h. Also, in the experiment with STZ-diabetic rats (STZ-diabetic rats), the “reversal of tactile allodynia in the hindpaws” value is “fully reversed” and the “onset of anti-allodynia (summary in discussion)” value is listed as “relatively rapid onset”. Moreover, the “extent and duration of the anti-allodynic response, oral compared with i.p. route” value in the experiment with STZ-diabetic rats (STZ-diabetic rats, oral bolus 0.1 μg/kg vs same dose i.p.) is recorded as “similar”. Also, the “antinociception” value in experiment [2] (i.p. doses up to 3 mg/kg) is reported as “insignificant antinociception”. Further, in experiment [3], the “extent and duration of the anti-allodynic response, oral compared with i.p. route” value is on record as “similar”.
For the molecule `Cc1cc(Cn2cnc3c2C[C@@H](C(=O)O)N(C(=O)C(c2ccccc2)c2ccccc2)C3)ccc1N(C)C` [PD-123,319], the “relief of tactile allodynia in the ipsilateral (injured) hindpaw” value in experiment [1] (CCI-rats, single bolus i.p. 1-10 mg/kg, n=3-4) is reported as “dose-dependent (A) relief of tactile allodynia”; in experiment [1] (CCI-rats, single bolus i.v. 0.1-0.3 mg/kg, n=2) it was “dose-dependent (A) relief of tactile allodynia”. For the same molecule, the “relief of tactile allodynia” value in the experiment with STZ-diabetic rats (STZ-diabetic rats (8-wks after STZ), single bolus i.p. 0.3-3.0 mg/kg, n=4) was “dose-dependent relief of tactile allodynia”. Further, the “antinociception” value in experiment [2] (single bolus i.p. 1-10 mg/kg, n=3-4) is “antinociception in the contralateral hindpaw”; in experiment [2] (single bolus i.v. 0.1-0.3 mg/kg, n=2), “antinociception in the contralateral hindpaw”.

Values taken from patent publication US9018207B2, “Method of treatment or prophylaxis” (Spinifex Pharmaceuticals Pty Ltd, priority 2004, dated 2015).
